# Like-named read-outs stand apart in the source and are kept apart here.
# Columns and labels:
# [1] = tested on: human mammary cells MCF-7; experiment: Effect on the proliferation of mammary cells (MCF-7, DNA quantitation after 7 days); type: cell-based; parameters: key: The molecules inducing a cellular growth identical to that observed with the solvent alone are classed “inactivated”; Inhibitor: those inducing cellular growth lower than that observed with the solvent are classed “inhibitor”; *Mixed: slight agonist activity in very weak concentrations and inhibitory activity in stronger concentrations; conditions: MCF-7 cells in steroid-free medium, 7 days of culture, DNA analysis; compared with oestradiol at 10^-10M = 100% agonist activity
# Excerpt: 1—Effect on the Proliferation of Mammary Cells The proliferative activity of the molecules is studied comparatively with that of oestradiol on the human mammary cells MCF-7 in culture. To highlight the agonist effect of oestradiol and/or the molecules tested, the culture medium for the maintenance of the cells (rich in growth factors and in steroids) is replaced by a more impoverished medium, amongst others lacking in steroids (DMEM supplemented by 5% of serum with steroid removed and without phenol red). The cells undergo this deprivation two days before the start of the trial. After 7 days of culture in the presence of the products to be studied, the cellular proliferation is evaluated by quantitive analysis of the DNA. In each trial, the effect of the oestradiol at 10^−10M (cellular growth in the presence of oestradiol less cellular growth in the presence of solvent) determines the agonist activity at 100%. The activity of the molecules is evaluated in comparison to this internal control. The molecules inducing a cellular growth identical to that observed with the solvent alone are classed “inactivated”, those inducing cellular growth lower than that observed with the solvent are classed “inhibitor”.
# [2] = target: T1, recombinant human oestrogen receptor (Homo sapiens, UniProt P03372); experiment: Affinity for the human oestrogen receptor (REH), displacement of tritiated oestradiol, relative affinity ARL; type: binding
# T1 construct: comprising the coding region for the human oestrogen receptor of wild type; made in house; host or cells: SF9 insect cells (ATCC CRL1711), baculovirus
# T1 sequence (P03372 1-595): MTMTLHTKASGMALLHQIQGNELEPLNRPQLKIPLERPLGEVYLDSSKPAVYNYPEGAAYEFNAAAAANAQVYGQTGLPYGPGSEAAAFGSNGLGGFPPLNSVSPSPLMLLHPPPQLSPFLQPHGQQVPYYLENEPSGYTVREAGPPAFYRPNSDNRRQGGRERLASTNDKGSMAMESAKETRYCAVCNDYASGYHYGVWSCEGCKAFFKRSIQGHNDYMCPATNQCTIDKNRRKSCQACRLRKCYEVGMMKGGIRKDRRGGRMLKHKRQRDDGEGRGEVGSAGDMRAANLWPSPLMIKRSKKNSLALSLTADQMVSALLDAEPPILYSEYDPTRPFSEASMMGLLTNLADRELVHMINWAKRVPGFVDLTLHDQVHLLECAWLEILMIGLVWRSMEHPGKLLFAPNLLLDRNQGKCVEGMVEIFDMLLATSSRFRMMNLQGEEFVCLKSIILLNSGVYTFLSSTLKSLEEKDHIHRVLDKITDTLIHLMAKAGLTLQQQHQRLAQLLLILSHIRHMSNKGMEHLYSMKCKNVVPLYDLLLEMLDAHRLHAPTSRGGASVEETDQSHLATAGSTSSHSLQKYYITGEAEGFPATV
# Excerpt: 2—Affinity of the Human Oestrogen Receptor (REH)
# A cytosolic extract of SF9 cells containing the recombinant human oestrogen receptor is obtained by over-expression in an insect-Baculo-viros system of cells, according to the general methodology described by N. R. WEBB et al. (Journal of Methods in cell and Molecular Biology, (1990) vol 2 n°4, 173-188) and whose application is described for the expression of human hormonal receptors, for example the human glucocorticoid receptor (G.SRINIVASAN et al. Molecular Endocrinology (1990) vol 4 n°2 209-216).
# The BaculoGold Transfection Kit (PharMingen, reference 21000K) is used to generate the recombinant baculovirus containing the fragment of DNAc described in the expression vector HEGO by L. TORA et al. (The EMBO Journal (1989) vol 8 n°7 1981-1986) comprising the coding region for the human oestrogen receptor of wild type with glycine in position 400.
# The recombinant virus obtained in this way is used to express the […] receptor in the cells of insects SF9 (ATCC CRL1711), according to the known methodology previously cited.
# 2×10^7 SF9 cells are cultivated in a 175 cm^2 “Falcon” flask in TNM-FH “SIGMA” medium supplemented with 10% of foetal calf serum (FCS) and 50 micrograms/ml of gentamycine. After infection then incubation at 27° C. for 40 to 42 hours, the cells are lysed in 1 ml of lyse buffer (Tris 20 mM-HCl pH8, EDTA 0.5 mM, DTT 2mM, Glycerol 20%, KCl 400 mM) by a freezing-defrosting cycle that is repeated twice more. The supernatant, containing the recombinant human oestrogen receptor is preserved in liquid nitrogen in 0.5 ml amounts.
# The supernatant is incubated at 0° C. for 24 hours with a consistent concentration (T) of oestradiol tritiated in the presence of growing concentrations either of cold oestradiol (0-1000×10^−9M), or of cold product to be tested (0-25000×10^−9M). The concentration of linked triated oestradiol (B) is then measured in each incubation by the dextran carbon adsorption technique.
# 3—Calculation of the Affinity Relative to Linking (ARL)
# The 2 following curves are plotted: the percentage of 100×B/BO linked tritiated hormone in comparison to the logarithm of the concentration of cold reference hormone or in comparison to the logarithm of the concentration of cold product tested.
# The soundness of the following equation is determined:
# B0=Concentration of the linked tritiated hormone in the absence of any cold product,
# B=Concentration of the linked tritiated hormone in the presence of an X concentration of cold product,
# Bmin=Concentration of linked tritiated hormone for an incubation of this tritiated hormone in concentration (T) in the presence of a large excess of cold reference hormone (1000×10^−9) for human receptor.
# The intersections of the right angle I50 and the curves, make it possible to evaluate the concentration of cold reference hormone (CH) and the tested cold product (CX) which inhibit 50% of the bond of the tritiated hormone on the receptor.
# The relative affinity of the link (ARL) of the tested product is determined by the equation: […]
# [3] = incubation at 0° C. for 24 hours with tritiated oestradiol, ARL=100(CH)/(CX), oestradiol = 100
"Relative affinity of the link (ARL), EH oestradiol = 100, 24 H [2, 3]",SMILES,ACTIVITY (proliferative activity on MCF-7 cells) [1],"Relative affinity of the link (ARL), EH oestradiol = 100, 24 H [2]"
42,"CC1(O)CCC2C3CCc4cc(O)ccc4C3C(c3ccc(CCCN4CCCCC4)cc3)CC21C (stereo not drawn) [Example 13, 17α-methyl-11β-[4-[3-(1-piperidininyl)propyl]phenyl]-estra-1,3,5(10)-trien-3,17β-diol]",Inhibitor,–
28,"CCN(CC)CCCc1ccc([C@H]2C[C@]3(C)[C@@H](O)CC[C@H]3[C@@H]3CCc4c(ccc(O)c4Cl)[C@H]32)cc1 [Example 12, 4-chloro-11β-[4-[3-(1-diethylamino)propyl]phenyl]-estra-1,3,5(10)-trien-3,17β-diol]",Inhibitor,–
28,C[C@]12C[C@H](c3ccc(CCCN4CCCCC4)cc3)[C@@H]3c4ccc(O)cc4CC[C@H]3[C@@H]1CC[C@@H]2O [Example 9],Inhibitor,–

# Continued, compound first:
SMILES,"Relative affinity of the link (ARL), EH oestradiol = 100, 24 H [2, 3]",ACTIVITY (proliferative activity on MCF-7 cells) [1],"Relative affinity of the link (ARL), EH oestradiol = 100, 24 H [2]"
"C[C@]12CC[C@@H]3c4ccc(O)cc4CC[C@H]3[C@@H]1CC[C@@H]2O [Oestradiol, reference compound]",–,Agonist,–
"C[C@]12C[C@H](c3ccc(CCCN4CCCCC4)cc3)[C@@H]3c4ccc(O)c(Cl)c4CC[C@H]3[C@@H]1CC[C@@H]2O [Example 11, 4-chloro-11β-[4-[3-(1-piperidinyl)propyl]phenyl]-estra-1,3,5(10) -trien-3,17β-diol]",–,Mixed,14
"C[C@]12C[C@H](c3ccc(CCCN4CCCC4)cc3)[C@@H]3c4ccc(O)cc4CC[C@H]3[C@@H]1CC[C@@H]2O [Example 7, 11β-[4-[3-(1-pyrrolidinyl)propyl]phenyl]-estra-1,3,5(10)-trien-3,17β-diol]",–,Inhibitor,59
